Activity data for 1 compound are collected here from ChEMBL document CHEMBL2073981, “Differential regulation of multidrug resistance-associated protein 2 (MRP2) and cytochromes P450 2B1/2 and 3A1/2 in phenobarbital-treated hepatocytes” (Biochem Pharmacol, 2002).

Series [1] concerns the target Multidrug resistance protein 1a (Rattus norvegicus) (UniProt Q6PSM0). In words: (§1) TP_TRANSPORTER: Northern blot in vitro, primary hepatocytes. The format is functional, cell-based. Conditions: Hepatocyte.
The target in series [2] is T1, ATP-binding cassette sub-family C member 2 (Rattus norvegicus, UniProt Q63120). The series is described as §1. The series is classed as functional, cell-based, Hepatocyte.
Series [3] has as its target T2, ATP-binding cassette sub-family C member 2 (Homo sapiens, UniProt Q92887). Described as §1. The format is functional, cell-based, Hepatocyte.
The target of series [4] is T1, ATP-binding cassette sub-family C member 2. Briefly: (§2) TP_TRANSPORTER: Western in vitro, primary hepatocytes. The series is classed as functional, cell-based, Hepatocyte.
Series [5] addresses T2, ATP-binding cassette sub-family C member 2. The description is as §2. The format is functional, cell-based, Hepatocyte.
The target of series [6] is T1, ATP-binding cassette sub-family C member 2. Briefly: TP_TRANSPORTER: Northern blot in vivo SD rat, liver. The series is classed as functional, organism-based, Sprague-Dawley.

T1 sequence (Q63120 whole entry): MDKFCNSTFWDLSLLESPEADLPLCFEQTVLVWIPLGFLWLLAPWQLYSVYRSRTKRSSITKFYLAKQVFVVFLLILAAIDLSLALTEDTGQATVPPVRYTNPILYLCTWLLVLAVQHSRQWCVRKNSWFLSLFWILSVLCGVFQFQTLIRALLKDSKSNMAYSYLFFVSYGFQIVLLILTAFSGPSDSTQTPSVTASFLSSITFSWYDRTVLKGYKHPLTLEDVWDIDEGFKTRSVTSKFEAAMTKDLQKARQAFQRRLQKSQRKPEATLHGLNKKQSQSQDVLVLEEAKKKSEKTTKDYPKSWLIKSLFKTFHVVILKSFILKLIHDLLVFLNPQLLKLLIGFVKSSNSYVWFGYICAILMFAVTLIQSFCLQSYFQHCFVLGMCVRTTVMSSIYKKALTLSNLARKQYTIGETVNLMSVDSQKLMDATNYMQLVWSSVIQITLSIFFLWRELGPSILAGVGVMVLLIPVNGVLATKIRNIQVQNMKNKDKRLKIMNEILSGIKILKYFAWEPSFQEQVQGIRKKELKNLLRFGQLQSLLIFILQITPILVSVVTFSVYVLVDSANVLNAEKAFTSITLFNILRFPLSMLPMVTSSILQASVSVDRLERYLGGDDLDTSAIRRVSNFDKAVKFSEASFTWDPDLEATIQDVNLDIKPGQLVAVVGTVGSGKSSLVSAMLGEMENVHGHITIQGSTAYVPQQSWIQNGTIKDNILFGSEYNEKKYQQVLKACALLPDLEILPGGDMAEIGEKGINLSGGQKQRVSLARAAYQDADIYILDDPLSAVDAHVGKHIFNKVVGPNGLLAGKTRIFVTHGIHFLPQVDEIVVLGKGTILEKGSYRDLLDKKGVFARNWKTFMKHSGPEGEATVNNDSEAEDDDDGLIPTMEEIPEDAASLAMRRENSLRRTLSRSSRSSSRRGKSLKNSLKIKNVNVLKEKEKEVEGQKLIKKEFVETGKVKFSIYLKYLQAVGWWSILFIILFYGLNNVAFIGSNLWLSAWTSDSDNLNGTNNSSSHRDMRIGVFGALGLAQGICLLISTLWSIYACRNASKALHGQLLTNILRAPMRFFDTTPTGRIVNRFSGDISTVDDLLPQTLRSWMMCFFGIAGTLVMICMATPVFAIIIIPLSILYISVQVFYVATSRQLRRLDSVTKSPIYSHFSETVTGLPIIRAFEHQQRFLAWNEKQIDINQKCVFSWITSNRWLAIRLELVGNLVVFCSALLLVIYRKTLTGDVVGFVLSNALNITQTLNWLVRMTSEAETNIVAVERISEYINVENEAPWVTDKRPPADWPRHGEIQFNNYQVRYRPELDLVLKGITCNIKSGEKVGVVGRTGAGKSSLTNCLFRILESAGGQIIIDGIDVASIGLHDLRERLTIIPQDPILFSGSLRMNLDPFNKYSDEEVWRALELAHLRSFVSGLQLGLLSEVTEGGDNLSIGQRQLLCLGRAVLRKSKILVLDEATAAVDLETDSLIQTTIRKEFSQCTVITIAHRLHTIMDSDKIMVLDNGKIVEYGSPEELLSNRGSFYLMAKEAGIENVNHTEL
T2 sequence (Q92887 whole entry): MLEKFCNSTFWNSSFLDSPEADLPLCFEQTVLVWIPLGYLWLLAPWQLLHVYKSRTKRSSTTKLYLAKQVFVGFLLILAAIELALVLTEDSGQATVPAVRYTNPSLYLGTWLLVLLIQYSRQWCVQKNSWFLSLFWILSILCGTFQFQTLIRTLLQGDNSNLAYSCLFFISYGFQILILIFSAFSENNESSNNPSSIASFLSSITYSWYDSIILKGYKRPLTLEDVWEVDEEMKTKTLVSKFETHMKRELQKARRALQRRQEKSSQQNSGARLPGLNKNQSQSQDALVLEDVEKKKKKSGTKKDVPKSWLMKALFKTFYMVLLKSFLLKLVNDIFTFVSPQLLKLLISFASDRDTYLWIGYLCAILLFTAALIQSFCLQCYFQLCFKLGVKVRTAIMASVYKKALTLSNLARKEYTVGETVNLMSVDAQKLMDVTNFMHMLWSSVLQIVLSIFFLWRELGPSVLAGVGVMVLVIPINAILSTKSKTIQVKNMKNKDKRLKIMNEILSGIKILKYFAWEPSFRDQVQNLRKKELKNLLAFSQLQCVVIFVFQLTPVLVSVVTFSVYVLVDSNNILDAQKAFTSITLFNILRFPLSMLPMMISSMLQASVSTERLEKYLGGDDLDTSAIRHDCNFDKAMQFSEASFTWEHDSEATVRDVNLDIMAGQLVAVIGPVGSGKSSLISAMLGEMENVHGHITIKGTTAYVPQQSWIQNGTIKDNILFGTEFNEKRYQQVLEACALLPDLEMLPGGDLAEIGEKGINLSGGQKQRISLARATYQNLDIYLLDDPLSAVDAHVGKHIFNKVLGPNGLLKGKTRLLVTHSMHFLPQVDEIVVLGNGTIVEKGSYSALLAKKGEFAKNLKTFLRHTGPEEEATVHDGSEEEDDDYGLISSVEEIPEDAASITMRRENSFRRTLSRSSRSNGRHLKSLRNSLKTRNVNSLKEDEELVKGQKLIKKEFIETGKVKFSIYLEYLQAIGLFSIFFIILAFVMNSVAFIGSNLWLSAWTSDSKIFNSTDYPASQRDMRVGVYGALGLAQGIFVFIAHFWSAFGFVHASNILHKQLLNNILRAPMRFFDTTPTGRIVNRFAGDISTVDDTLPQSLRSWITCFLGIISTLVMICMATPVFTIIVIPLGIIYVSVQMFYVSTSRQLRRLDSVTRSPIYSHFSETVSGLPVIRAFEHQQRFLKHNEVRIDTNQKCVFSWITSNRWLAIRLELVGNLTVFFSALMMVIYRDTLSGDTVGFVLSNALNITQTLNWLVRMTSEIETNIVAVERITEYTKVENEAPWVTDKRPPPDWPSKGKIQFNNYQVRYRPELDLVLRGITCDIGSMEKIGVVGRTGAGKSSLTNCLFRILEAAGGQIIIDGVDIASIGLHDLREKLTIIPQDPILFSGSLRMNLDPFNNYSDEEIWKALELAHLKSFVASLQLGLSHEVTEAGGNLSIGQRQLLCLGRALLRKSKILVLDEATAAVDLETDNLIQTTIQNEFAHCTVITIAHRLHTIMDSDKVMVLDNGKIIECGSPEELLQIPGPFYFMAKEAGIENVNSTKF
Multidrug resistance protein 1a (Rattus norvegicus), sequence (Q6PSM0 as listed by the source): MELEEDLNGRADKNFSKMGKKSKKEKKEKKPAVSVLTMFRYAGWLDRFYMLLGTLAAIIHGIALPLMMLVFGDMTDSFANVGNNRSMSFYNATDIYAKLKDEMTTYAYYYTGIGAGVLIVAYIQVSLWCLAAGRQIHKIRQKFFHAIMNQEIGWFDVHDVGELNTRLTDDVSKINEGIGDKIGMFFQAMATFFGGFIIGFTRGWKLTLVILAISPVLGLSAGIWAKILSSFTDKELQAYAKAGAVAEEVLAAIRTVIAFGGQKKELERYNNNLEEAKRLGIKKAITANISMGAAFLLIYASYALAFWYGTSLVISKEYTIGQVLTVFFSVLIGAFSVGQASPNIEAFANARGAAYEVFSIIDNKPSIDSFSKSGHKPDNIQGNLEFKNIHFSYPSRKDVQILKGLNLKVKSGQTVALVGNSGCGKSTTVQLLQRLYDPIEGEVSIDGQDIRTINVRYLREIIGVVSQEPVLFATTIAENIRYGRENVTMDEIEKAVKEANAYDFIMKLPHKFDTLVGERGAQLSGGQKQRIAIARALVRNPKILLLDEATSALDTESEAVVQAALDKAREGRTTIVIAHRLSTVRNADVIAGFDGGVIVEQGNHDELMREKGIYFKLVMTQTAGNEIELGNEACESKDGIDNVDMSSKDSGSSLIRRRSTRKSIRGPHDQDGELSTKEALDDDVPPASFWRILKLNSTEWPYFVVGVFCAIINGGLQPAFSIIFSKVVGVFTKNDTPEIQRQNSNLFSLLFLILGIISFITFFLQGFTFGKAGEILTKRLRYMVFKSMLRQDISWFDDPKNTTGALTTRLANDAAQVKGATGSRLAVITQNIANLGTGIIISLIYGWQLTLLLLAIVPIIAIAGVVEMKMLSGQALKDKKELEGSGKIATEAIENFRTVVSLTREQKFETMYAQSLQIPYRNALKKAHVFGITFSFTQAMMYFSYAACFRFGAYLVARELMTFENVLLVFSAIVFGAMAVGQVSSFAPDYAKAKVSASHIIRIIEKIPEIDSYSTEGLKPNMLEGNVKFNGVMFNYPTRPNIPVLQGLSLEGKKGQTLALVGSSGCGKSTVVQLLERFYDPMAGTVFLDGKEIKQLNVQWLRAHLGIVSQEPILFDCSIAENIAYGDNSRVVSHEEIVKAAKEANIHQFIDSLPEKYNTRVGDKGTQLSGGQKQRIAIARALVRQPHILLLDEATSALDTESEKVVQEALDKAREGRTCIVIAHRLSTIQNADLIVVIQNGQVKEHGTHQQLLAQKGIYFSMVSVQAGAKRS

Take `CCC1(c2ccccc2)C(=O)NC(=O)NC1=O` [PHENOBARBITAL]: the Activity entry was “is not an inducer [-]” in series [1]; “inducer [+]” in series [2]; “inducer [+]” in series [3]; “inducer [+]” in series [4]; “inducer [+]” in series [5]; “is not an inducer [-]” in series [6].
